# Source: ChEMBL document CHEMBL3885881, “DrugMatrix”
# Species on record: Rattus norvegicus
# Assay: DrugMatrix - Regimen: Daily Repeat
# Format: toxicity, organism-based, Sprague-Dawley
# Set-up: regimen Daily Repeat, gender Male, age 6-8 weeks
# Settings: in vivo, iv, […], vehicle 100 % SALINE; for ALANINE AMINOTRANSFERASE / ALBUMIN / ALKALINE PHOSPHATASE / ASPARTATE AMINOTRANSFERASE / BLOOD UREA NITROGEN / CARBON DIOXIDE / CHLORIDE / CHOLESTEROL / CREATINE PHOSPHOKINASE / CREATININE / GLUCOSE / LACTATE DEHYDROGENASE / LIPASE / PHOSPHORUS / POTASSIUM / SODIUM / TOTAL BILIRUBIN / TOTAL PROTEIN / URIC ACID: tissue Plasma; for ABSOLUTE BASOPHIL / ABSOLUTE EOSINOPHIL / ABSOLUTE LYMPHOCYTE / ABSOLUTE MONOCYTE / ABSOLUTE SEGMENTED NEUTROPHIL / BASOPHIL / EOSINOPHIL / ERYTHROCYTE COUNT / HEMATOCRIT / HEMOGLOBIN / LEUKOCYTE COUNT / LYMPHOCYTE / MEAN CORPUSCULAR HEMOGLOBIN / MEAN CORPUSCULAR HEMOGLOBIN CONCENTRATION / MEAN CORPUSCULAR VOLUME / MONOCYTE / NEUTROPHIL / NUCLEATED RED BLOOD CELLS / PLATELET COUNT: tissue Blood
# [1] = 72 h, dose 0.15 mg/Kg, dose level Low, time 3 day
# [2] = 72 h, dose 1.5 mg/Kg, dose level High, time 3 day
# [3] = 120 h, dose 0.15 mg/Kg, dose level Low, time 5 day
# [4] = 120 h, dose 1.5 mg/Kg, dose level High, time 5 day
structure (smiles),measurement,setting,value
CCC1=C[C@@H]2CN(C1)Cc1c([nH]c3ccccc13)[C@@](C(=O)OC)(c1cc3c(cc1OC)N(C)[C@H]1[C@@](O)(C(=O)OC)[C@H](OC(C)=O)[C@]4(CC)C=CCN5CC[C@]31[C@@H]54)C2 [VINORELBINE],ALANINE AMINOTRANSFERASE,[1],59 u/L
same,ALBUMIN,[1],4.53 G/DL
same,ALKALINE PHOSPHATASE,[1],404 u/L
same,ASPARTATE AMINOTRANSFERASE,[1],88.67 u/L
same,BLOOD UREA NITROGEN,[1],17.33 mg/dL
same,CARBON DIOXIDE,[1],27.33 mmol/L
same,CHLORIDE,[1],101 MEQ/L
same,CHOLESTEROL,[1],68.67 mg/dL
same,CREATINE PHOSPHOKINASE,[1],237.67 u/L
same,CREATININE,[1],0.23 mg/dL
same,GLUCOSE,[1],167.33 mg/dL
same,LACTATE DEHYDROGENASE,[1],308.67 u/L
same,LIPASE,[1],9.67 u/L
same,PHOSPHORUS,[1],13.7 mg/dL
same,POTASSIUM,[1],6.88 MEQ/L
same,SODIUM,[1],145.07 MEQ/L
same,TOTAL BILIRUBIN,[1],0.23 mg/dL
same,TOTAL PROTEIN,[1],6.33 G/DL
same,URIC ACID,[1],2.1 mg/dL
same,ALANINE AMINOTRANSFERASE,[2],45.33 u/L
same,ALBUMIN,[2],4.47 G/DL
same,ALKALINE PHOSPHATASE,[2],359.33 u/L
same,ASPARTATE AMINOTRANSFERASE,[2],137.33 u/L
same,BLOOD UREA NITROGEN,[2],20.67 mg/dL
same,CARBON DIOXIDE,[2],24 mmol/L
same,CHLORIDE,[2],103 MEQ/L
same,CHOLESTEROL,[2],72.67 mg/dL
same,CREATINE PHOSPHOKINASE,[2],671.33 u/L
same,CREATININE,[2],0.17 mg/dL
same,GLUCOSE,[2],185.67 mg/dL
same,LACTATE DEHYDROGENASE,[2],160.33 u/L
same,LIPASE,[2],10 u/L
same,PHOSPHORUS,[2],13 mg/dL
same,POTASSIUM,[2],5.92 MEQ/L
same,SODIUM,[2],146 MEQ/L
same,TOTAL BILIRUBIN,[2],0.1 mg/dL
same,TOTAL PROTEIN,[2],6.2 G/DL
same,URIC ACID,[2],2.37 mg/dL
same,ABSOLUTE BASOPHIL,[3],0 CELLS/uL
same,ABSOLUTE EOSINOPHIL,[3],49 CELLS/uL
same,ABSOLUTE LYMPHOCYTE,[3],14282 CELLS/uL
same,ABSOLUTE MONOCYTE,[3],49 CELLS/uL
same,ABSOLUTE SEGMENTED NEUTROPHIL,[3],2420 CELLS/uL
same,BASOPHIL,[3],0%
same,EOSINOPHIL,[3],0.33%
same,ERYTHROCYTE COUNT,[3],5.78 x10E6/uL
same,HEMATOCRIT,[3],36.1%
same,HEMOGLOBIN,[3],14.13 G/DL
same,LEUKOCYTE COUNT,[3],16.8 x10E3/uL
same,LYMPHOCYTE,[3],84.67%
same,MEAN CORPUSCULAR HEMOGLOBIN,[3],24.47 pg
same,MEAN CORPUSCULAR HEMOGLOBIN CONCENTRATION,[3],39.2 G/DL
same,MEAN CORPUSCULAR VOLUME,[3],62.5 fL
same,MONOCYTE,[3],0.33%
same,NEUTROPHIL,[3],14.67%
same,NUCLEATED RED BLOOD CELLS,[3],0 /100WBC
same,PLATELET COUNT,[3],1168.33 x10E3/uL
same,ABSOLUTE BASOPHIL,[4],0 CELLS/uL
same,ABSOLUTE EOSINOPHIL,[4],0 CELLS/uL
same,ABSOLUTE LYMPHOCYTE,[4],6817.33 CELLS/uL
same,ABSOLUTE MONOCYTE,[4],24.67 CELLS/uL
same,ABSOLUTE SEGMENTED NEUTROPHIL,[4],24.67 CELLS/uL
same,BASOPHIL,[4],0%
same,EOSINOPHIL,[4],0%
same,ERYTHROCYTE COUNT,[4],5.47 x10E6/uL
same,HEMATOCRIT,[4],31.93%
same,HEMOGLOBIN,[4],12.93 G/DL
same,LEUKOCYTE COUNT,[4],6.87 x10E3/uL
same,LYMPHOCYTE,[4],99.33%
same,MEAN CORPUSCULAR HEMOGLOBIN,[4],23.67 pg
same,MEAN CORPUSCULAR HEMOGLOBIN CONCENTRATION,[4],40.5 G/DL
same,MEAN CORPUSCULAR VOLUME,[4],58.4 fL
same,MONOCYTE,[4],0.33%
same,NEUTROPHIL,[4],0.33%
same,NUCLEATED RED BLOOD CELLS,[4],0 /100WBC
same,PLATELET COUNT,[4],359 x10E3/uL
same,ALANINE AMINOTRANSFERASE,[3],48.33 u/L
same,ALBUMIN,[3],4.33 G/DL
same,ALKALINE PHOSPHATASE,[3],436.67 u/L
same,ASPARTATE AMINOTRANSFERASE,[3],85 u/L
same,BLOOD UREA NITROGEN,[3],16.67 mg/dL
same,CARBON DIOXIDE,[3],27 mmol/L
same,CHLORIDE,[3],100.67 MEQ/L
same,CHOLESTEROL,[3],65.33 mg/dL
same,CREATINE PHOSPHOKINASE,[3],245 u/L
same,CREATININE,[3],0.2 mg/dL
same,GLUCOSE,[3],166.33 mg/dL
same,LACTATE DEHYDROGENASE,[3],152 u/L
same,LIPASE,[3],9.33 u/L
same,PHOSPHORUS,[3],12.43 mg/dL
same,POTASSIUM,[3],7.02 MEQ/L
same,SODIUM,[3],145.37 MEQ/L
same,TOTAL BILIRUBIN,[3],0.2 mg/dL
same,TOTAL PROTEIN,[3],6.27 G/DL
same,URIC ACID,[3],2.07 mg/dL
same,ALANINE AMINOTRANSFERASE,[4],58.67 u/L
same,ALBUMIN,[4],4.23 G/DL
same,ALKALINE PHOSPHATASE,[4],367.67 u/L
same,ASPARTATE AMINOTRANSFERASE,[4],138.67 u/L
same,BLOOD UREA NITROGEN,[4],15 mg/dL
same,CARBON DIOXIDE,[4],31.33 mmol/L
same,CHLORIDE,[4],100 MEQ/L
same,CHOLESTEROL,[4],75 mg/dL
same,CREATINE PHOSPHOKINASE,[4],193 u/L
same,CREATININE,[4],0.19 mg/dL
same,GLUCOSE,[4],143.67 mg/dL
same,LACTATE DEHYDROGENASE,[4],98 u/L
same,LIPASE,[4],9 u/L
same,PHOSPHORUS,[4],10.6 mg/dL
same,POTASSIUM,[4],6.34 MEQ/L
same,SODIUM,[4],146.4 MEQ/L
same,TOTAL BILIRUBIN,[4],0.2 mg/dL
same,TOTAL PROTEIN,[4],6.13 G/DL
same,URIC ACID,[4],0.9 mg/dL
